Data published in patent publication US8791132B2, “Compounds and methods for treatment of hypertension” (Medivation Technologies, Inc., priority 2011, dated 2014).
Read-outs that look alike come from different tables or passages of the source. Values belong to the compound of their own block, whether it stands above or below them.

How the values were obtained:
[1] = biological target: T1, human recombinant adrenergic α2A receptor (Homo sapiens, UniProt P08913); assay: Radioligand binding, adrenergic α2A ([3H]MK-912); conditions: for Percentage inhibition of ligand binding, Adrenergic α2A / Percentage inhibition of ligand binding, Adrenergic α2A (0.1 μM): 0.1 µM
T1 construct: expressed in transfected cells; host or cells: insect Sf9 cells
T1 sequence (P08913 1-465): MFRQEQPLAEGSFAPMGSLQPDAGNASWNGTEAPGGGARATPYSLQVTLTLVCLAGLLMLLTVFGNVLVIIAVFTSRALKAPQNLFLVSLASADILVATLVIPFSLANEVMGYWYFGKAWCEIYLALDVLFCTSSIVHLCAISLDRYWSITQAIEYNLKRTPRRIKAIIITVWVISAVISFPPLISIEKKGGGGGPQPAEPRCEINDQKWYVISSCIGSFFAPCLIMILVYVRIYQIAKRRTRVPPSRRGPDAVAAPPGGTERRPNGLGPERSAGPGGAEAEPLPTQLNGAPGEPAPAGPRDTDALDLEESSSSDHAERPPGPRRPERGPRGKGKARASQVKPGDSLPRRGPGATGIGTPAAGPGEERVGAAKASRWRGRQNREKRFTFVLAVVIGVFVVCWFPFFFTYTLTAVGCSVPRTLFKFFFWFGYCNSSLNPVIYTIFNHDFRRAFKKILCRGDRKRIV
In short: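 Receptor expressed in Sf9 cells, in 50 mM Tris-HCl pH 7.4, 12.5 mM MgCl2, 2 mM EDTA; compounds incubated with 1 nM [3H]MK-912 for 60 min at 25 °C.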

[2] = biological target: T2, human recombinant adrenergic α2B receptor (Homo sapiens, UniProt P18089); assay: Radioligand binding, adrenergic α2B ([3H]Rauwolscine)
T2 construct: expressed in transfected cells; host or cells: CHO-K1
T2 sequence (P18089 1-450): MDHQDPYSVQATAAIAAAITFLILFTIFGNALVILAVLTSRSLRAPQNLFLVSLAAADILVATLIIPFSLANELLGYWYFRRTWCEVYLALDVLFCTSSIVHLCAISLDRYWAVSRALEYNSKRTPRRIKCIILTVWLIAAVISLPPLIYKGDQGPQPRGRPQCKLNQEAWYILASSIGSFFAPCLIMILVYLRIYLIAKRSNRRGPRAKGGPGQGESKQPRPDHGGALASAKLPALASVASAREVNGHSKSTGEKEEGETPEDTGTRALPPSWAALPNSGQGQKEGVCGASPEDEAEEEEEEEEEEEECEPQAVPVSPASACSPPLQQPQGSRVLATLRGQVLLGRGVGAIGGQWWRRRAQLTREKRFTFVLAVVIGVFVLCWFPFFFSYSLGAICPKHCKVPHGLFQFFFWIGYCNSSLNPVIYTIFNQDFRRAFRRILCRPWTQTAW
In short: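 Readout: percent inhibition of specific [3H]Rauwolscine binding, measured by filtration and counting. Conditions: CHO-K1 cell-expressed receptor, 2.5 nM radioligand, 60 min, 25° C, Tris-HCl pH 7.4 buffer with MgCl2, EDTA, BSA. Non-specific binding: 10 μM Prazosin.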

[3] = biological target: T3, rat adrenergic α1B receptor (Rattus norvegicus, UniProt P15823); assay: Radioligand binding, adrenergic α1B ([3H]Prazosin); conditions: for Percentage inhibition of ligand binding, Adrenergic α1B / Percentage inhibition of ligand binding, Adrenergic α1B (0.1 μM): 0.1 µM
T3 construct: rat adrenergic α1B receptor obtained from Wistar Rat liver; from tissue; host or cells: Wistar rat liver
T3 sequence (P15823 1-515): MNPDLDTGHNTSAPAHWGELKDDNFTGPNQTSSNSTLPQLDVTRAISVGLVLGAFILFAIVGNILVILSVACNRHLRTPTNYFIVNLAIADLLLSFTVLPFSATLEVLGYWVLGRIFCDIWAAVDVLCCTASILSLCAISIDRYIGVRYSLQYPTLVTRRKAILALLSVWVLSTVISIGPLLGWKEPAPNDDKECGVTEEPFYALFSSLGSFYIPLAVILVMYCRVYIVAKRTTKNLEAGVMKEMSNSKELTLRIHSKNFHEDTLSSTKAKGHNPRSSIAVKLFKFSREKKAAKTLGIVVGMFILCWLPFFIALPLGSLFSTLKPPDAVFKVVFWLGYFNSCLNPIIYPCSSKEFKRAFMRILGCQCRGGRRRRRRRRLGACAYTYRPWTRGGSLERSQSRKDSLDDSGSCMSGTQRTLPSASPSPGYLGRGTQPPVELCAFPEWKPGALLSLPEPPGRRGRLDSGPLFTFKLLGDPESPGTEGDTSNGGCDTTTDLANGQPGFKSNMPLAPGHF
In short: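 Specific binding, taken as total minus that remaining with 10 μM phentolamine, is measured after filtration and counting. Rat liver receptor preparation and 0.25 nM [3H]prazosin are incubated with compound in 50 mM Tris-HCl (pH 7.4, 0.5 mM EDTA) at 25° C for 60 min. Activity is reported as percent inhibition.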

[4] = compound at 0.1 μM, [3H]MK-912, repeat assays, each datapoint shown
[5] = compound at 0.03 μM, [3H]Rauwolscine, repeat assays, each datapoint shown, 0.03 µM
[6] = compound at 0.1 μM, [3H]Prazosin, repeat assays, each datapoint shown
[7] = compound at 0.03 μM, [3H]Rauwolscine, repeat assays, each datapoint shown, read-out: Percentage inhibition of ligand binding, Adrenergic α2B
[8] = compound at 0.1 μM, [3H]Prazosin, repeat assays, each datapoint shown, read-out: Percentage inhibition of ligand binding, Adrenergic α1B
[9] = compound at 0.1 μM, [3H]MK-912, repeat datapoints each shown
[10] = compound at 0.03 μM, [3H]Rauwolscine, repeat datapoints each shown, 0.03 µM
[11] = compound at 0.1 μM, [3H]Prazosin, repeat datapoints each shown
[12] = read-out: Percentage inhibition of ligand binding, Adrenergic α2A (0.1 μM), compound at 0.1 μM, [3H]MK-912, repeat datapoints each shown
[13] = read-out: Percentage inhibition of ligand binding, Adrenergic α2B (0.03 μM), compound at 0.03 μM, [3H]Rauwolscine, repeat datapoints each shown
[14] = read-out: Percentage inhibition of ligand binding, Adrenergic α1B (0.1 μM), compound at 0.1 μM, [3H]Prazosin, repeat datapoints each shown
[15] = 0.1 μM compound, read-out: Percentage inhibition of ligand binding, Adrenergic α2A
[16] = 0.03 μM compound, read-out: Percentage inhibition of ligand binding, Adrenergic α2B
[17] = 0.1 μM compound, read-out: Percentage inhibition of ligand binding, Adrenergic α1B

Percentage inhibition of ligand binding, Adrenergic α2A [1, 4]: −2%
Percentage inhibition of ligand binding, Adrenergic α2B [2, 5]: 37%
Percentage inhibition of ligand binding, Adrenergic α1B [3, 6]: 75%
SMILES: Cc1ccc2c(c1)c1c(n2CC(O)c2ccncc2)CCN(C)CC1 (single isomer, unassigned) [13a, 2-(3,9-dimethyl-2,3,4,5-tetrahydroazepino[4,5-b]indol-6(1H)-yl)-1-(pyridin-4-yl)ethanol]

Percentage inhibition of ligand binding, Adrenergic α2A [1, 4]: 4%
Percentage inhibition of ligand binding, Adrenergic α2B [2, 5]: 6%
Percentage inhibition of ligand binding, Adrenergic α1B [3, 6]: −20%
SMILES: CN1CCc2c(c3cc(C(C)(C)O)ccc3n2CC(O)c2ccncc2)C1 (single isomer, unassigned) [23a, 2-(2,3,4,5-tetrahydro-5-(2-hydroxy-2-(pyridin-4-yl)ethyl)-2-methyl-1H-pyrido[4,3-b]indol-8-yl)propan-2-ol]

inhibition at 0.1 µM ([1]; compound at 0.1 μM, [3H]MK-912, repeat assays, each datapoint shown, read-out: Percentage inhibition of ligand binding, Adrenergic α2A): 15%
inhibition at 0.03 µM [2, 7]: 69%
inhibition at 0.1 µM [3, 8]: 48%
SMILES: COc1ccc(C(O)Cn2c3c(c4cc(C)ccc42)CN(C)CC3)cc1OC (centres unmarked) [compound 66, 1-(3,4-dimethoxy-phenyl)-2-(2,8-dimethyl-1,2,3,4-tetrahydro-pyrido[4,3-b]indol-5-yl)-ethanol]

Percentage inhibition of ligand binding, Adrenergic α2A (0.1 μM) [1, 9]: 3%
Percentage inhibition of ligand binding, Adrenergic α2B (0.03 μM) [2, 10]: 72%
Percentage inhibition of ligand binding, Adrenergic α1B (0.1 μM) [3, 11]: 33%
SMILES: Cc1ccc2c(c1)c1c(n2CC(OC(=O)c2ccncc2)c2ccncc2)CCN(C)C1 (single isomer, unassigned) [147a, isonicotinic acid 2-(2,8-dimethyl-1,2,3,4-tetrahydro-pyrido[4,3-b]indol-5-yl)-1-pyridin-4-yl-ethylester]

Percentage inhibition of ligand binding, Adrenergic α2A (0.1 μM) [1, 9]: 5%
Percentage inhibition of ligand binding, Adrenergic α2B (0.03 μM) [2, 10]: 32%
Percentage inhibition of ligand binding, Adrenergic α1B (0.1 μM) [3, 11]: 31%
SMILES: Cc1ccc2c(c1)c1c(n2CC(C)(O)c2ccc(C(N)=O)nc2)CCN(C)C1 (single isomer, unassigned) [II-136b, 5-(1-(1,2,3,4-tetrahydro-2,8-dimethylpyrido[4,3-b]indol-5-yl)-2-hydroxypropan-2-yl)pyridine-2-carboxamide]

inhibition at 0.1 µM [1, 12]: 9%
inhibition at 0.03 µM [2, 13]: 77%
inhibition at 0.1 µM [3, 14]: 57%
SMILES: Cc1ccc2c(c1)c1c(n2CC(O)c2cnn[nH]2)CCN2CCCC12 (centres unmarked) [II-138]

inhibition at 0.1 µM [1, 12]: -1%
inhibition at 0.03 µM [2, 13]: 8%
inhibition at 0.1 µM [3, 14]: 9%
SMILES: Cc1ccc2c(c1)c1c(n2CC(CO)c2ccncc2)CCN(C)C1 (centres unmarked) [II-225]

Ki [1]: 59.5 nM
Percentage inhibition of ligand binding, Adrenergic α2A (0.1 μM) [1, 9]: 39%
inhibition at 0.03 µM ([1]; read-out: Percentage inhibition of ligand binding, Adrenergic α2A (0.03 μM), compound at 0.03 μM, [3H]MK-912, repeat datapoints each shown): 27%
inhibition at 0.1 µM [1, 12]: 34%
Percentage inhibition of ligand binding, Adrenergic α2B (0.03 μM) [2, 10]: 88%
Ki ([2]; read-out: Ki α2B): 2.42 nM
inhibition at 0.03 µM [2, 13]: 87%
inhibition at 0.1 µM ([2]; read-out: Percentage inhibition of ligand binding, Adrenergic α2B (0.1 μM), compound at 0.1 μM, [3H]Rauwolscine, repeat datapoints each shown): 94%
Percentage inhibition of ligand binding, Adrenergic α1B (0.1 μM) [3, 11]: 42%
inhibition at 0.03 µM ([3]; read-out: Percentage inhibition of ligand binding, Adrenergic α1B (0.03 μM), compound at 0.03 μM, [3H]Prazosin, repeat datapoints each shown): 16%
inhibition at 0.1 µM [3, 14]: 40%
SMILES: Cc1ccc2c(c1)c1c(n2CC(O)c2ccncc2C)CCN(C)C1 (single isomer, unassigned) [133b]

Percentage inhibition of ligand binding, Adrenergic α2A [1, 4]: 19%
inhibition at 0.03 µM [2, 7]: 37%
inhibition at 0.1 µM [3, 8]: 18%
SMILES: CN1Cc2c(n(CC(O)c3ccncc3)c3ncccc23)C(C)(C)C1 (centres unmarked) [compound 17, 1-pyridin-4-yl-2-(6,8,8-trimethyl-5,6,7,8-tetrahydro-1,6,9-triaza-fluoren-9-yl)-ethanol]

inhibition at 0.1 µM [1, 15]: -11%
inhibition at 0.03 µM [2, 16]: 43%
inhibition at 0.1 µM [3, 17]: 7%
SMILES: CN1CCc2c(c3cc(OC(F)(F)F)ccc3n2CC(O)c2ccncc2)C1 (centres unmarked) [II-67, 2-(2-methyl-8-trifluoromethoxy-1,2,3,4-tetrahydro-pyrido[4,3-b]indol-5-yl)-1-pyridin-4-yl-ethanol]

inhibition at 0.1 µM [1, 12]: 3%
inhibition at 0.03 µM [2, 13]: 35%
inhibition at 0.1 µM [3, 14]: 42%
SMILES: Cc1cnc2c(c1)c1c(n2CC(O)c2ccc(C(N)=O)nc2)CCN(C)C1 (centres unmarked) [II-111, 5-[2-(3,6-dimethyl-5,6,7,8-tetrahydro-1,6,9-triaza-fluoren-9-yl)-1-hydroxy-ethyl]-pyridine-2-carboxylic acid amide]

Percentage inhibition of ligand binding, Adrenergic α2A (0.1 μM) [1, 9]: 46%
Percentage inhibition of ligand binding, Adrenergic α2B (0.03 μM) [2, 10]: 93%
Percentage inhibition of ligand binding, Adrenergic α1B (0.1 μM) [3, 11]: 92%
SMILES: Cc1ccc2c(c1)c1c(n2CC(O)c2ccc(F)cc2F)CCN(C)CC1 (single isomer, unassigned) [172b]

inhibition at 0.1 µM [1, 12]: 19%
inhibition at 0.03 µM [2, 13]: 73%
inhibition at 0.1 µM [3, 14]: 29%
SMILES: Cc1ccc2c(c1)c1c(n2CC(C)(F)c2cccnc2)CCN(C)C1 (centres unmarked) [II-212, 5-(2-Fluoro-2-pyridin-3-yl-propyl)-2,8-dimethyl-2,3,4,5-tetrahydro-1H-pyrido[4,3-b]indole]

inhibition at 0.1 µM [1, 15]: 49%
inhibition at 0.03 µM [2, 16]: 96%
inhibition at 0.1 µM [3, 17]: 74%
SMILES: C/C(=C\n1c2c(c3cc(C)ccc31)CN(C)CC2)c1ccncc1 [II-2]

Percentage inhibition of ligand binding, Adrenergic α2A [1, 4]: 18%
Percentage inhibition of ligand binding, Adrenergic α2B [2, 5]: 92%
inhibition at 0.1 µM [3, 8]: 83%
SMILES: Cc1ccc2c(c1)c1c(n2CC(O)c2ccncc2)CCN(C)CC1 (centres unmarked) [compound 13, 2-(3,9-dimethyl-2,3,4,5-tetrahydroazepino[4,5-b]indol-6(1H)-yl)-1-(pyridin-4-yl)ethanol]

Percentage inhibition of ligand binding, Adrenergic α2A [1, 4]: −1%
Percentage inhibition of ligand binding, Adrenergic α2B [2, 5]: 24%
Percentage inhibition of ligand binding, Adrenergic α1B [3, 6]: 21%
SMILES: Cc1ccc2c(c1)c1c(n2CC(O)c2cccnc2)CN(C)CC1 (stereo not drawn) [compound 43, 2-(2,6-dimethyl-1,2,3,4-tetrahydro-β-carbolin-9-yl)-1-pyridin-3-yl-ethanol]

Percentage inhibition of ligand binding, Adrenergic α2A [1, 4]: 82%
Percentage inhibition of ligand binding, Adrenergic α2B ([2]; compound at 0.03 μM, [3H]Rauwolscine, repeat assays, each datapoint shown): 97%
Percentage inhibition of ligand binding, Adrenergic α1B [3, 6]: 81%
SMILES: Cc1ccc2c(c1)c1c(n2CC(C)(O)c2ccc(F)cc2)CCN(C)C1 (single isomer, unassigned) [90b]
